Patent US9375436B2, “Androgen treatment in females” (priority 2004, dated 2016)

Key:
[1] = system: women with diminished ovarian reserve; test: Miscarriage rates in DHEA pregnancies at two centers versus 2004 national US IVF data (Example 8); type: in vivo, human
Description: Based on reported clinical experiences, the indications for DHEA supplementation have changed over the years, with women above age 40 since 2007 receiving routine supplementation, and younger women receiving supplementation only selectively.
DHEA supplementation involves the use of pharmaceutical grade micronized DHEA at a dosage of about 25 mg, three times daily. Patients are on DHEA supplementation for at least about two months prior to oocyte retrieval. This period of minimal pretreatment is based on the recognition that at two months pregnancy curves between DHEA pretreated and control patients statistically diverge. DHEA is maintained until pregnancy is established and is discontinued with positive pregnancy test.
Toronto West Fertility Associates, in Toronto, Canada, started utilizing DHEA independent of the use of DHEA at the Center for Human Reproduction (CHR) in New York, N.Y. In December of 2007, Toronto's medical director forwarded a detailed electronic record of the center's all-inclusive DHEA experience for analysis to CHR. This study, therefore, reports on the miscarriage rate of pregnancies, independently established under DHEA supplementation at both fertility centers, and compares these rates, age-stratified, to miscarriage rates reported in a national IVF data base in the U.S. for the year 2004. The definitions of clinical pregnancy, and of miscarriage, used herein follow the reporting requirements of this national data base, defining a clinical pregnancy as a pregnancy, confirmed by ultrasound examination.
Miscarriage rates of DHEA supplemented patients were compared with national IVF outcome statistics, reported annually under Federal mandate by the Centers for Disease Control. The data utilized for this study reflect 2004 United States national statistics. Pregnancy and miscarriage rates at the two centers were pooled after confirmation of homogeneity of variance. Common odds ratios of the pooled miscarriage rates among age stratified pregnant patients were compared between the pooled rates and the 2004 US national rates utilizing the Mantel-Haenszel common odds ratio. Statistical analyses were performed using SPSS Windows, standard version 15.0.
DHEA supplementation: After approval by the center's institutional review board, the Center for Human Reproduction (CHR) in New York City has been utilizing DHEA supplementation in women with diminished ovarian reserve since 2004. Based on reported clinical experiences, the indications for such supplementation have changed over the years: In initial stages, only older women, above age 42, were supplemented and only if they had failed at least one IVF cycle and less than 4 oocytes had been retrieved in confirmation of ovarian resistance to stimulation. By mid-2005, indications were expanded to all women above age 40 with evidence of ovarian resistance and a history of one failed prior IVF cycle. […] By mid-2006 FSH baseline criteria were changed from absolute FSH elevations to elevations in age-specific FSH levels.
DHEA supplementation in all patients involves oral, pharmaceutical grade micronized medication at a dosage of 25 mg, three times daily (TID). Only morbidly obese women receive an increased daily dosage of 100 mg and no such women were involved in this study. […] Limited patient volume and funding sources have prevented dose response studies and 25 mg DHEA TID daily has, therefore, remained the only standard treatment dosage. Patients receive at least two months of DHEA supplementation prior to oocyte retrieval, unless they conceive spontaneously during that time period. This minimum pretreatment period is based on the recognition that at two months pregnancy curves between DHEA pretreated and control patients statistically diverge. DHEA is maintained until pregnancy, and is discontinued with second positive pregnancy test. […]

[2] = system: women with diminished ovarian reserve (DOR); test: IVF cycle and PGD outcomes in DHEA-treated women with DOR (Example 4); type: in vivo, human
Description: All the IVF cycles performed at the Center for Human Reproduction (CHR) in New York, N.Y., between 2004 and 2006 for cycles performed in women with a diagnosis of DOR were retroactively reviewed. The study population, involving 27 IVF cycles, was selected amongst those cycles which, in addition, had undergone preimplantation genetic diagnosis (PGD).
The diagnosis of DOR was made based on previously reported abnormally high, age stratified baseline FSH levels. In practical terms, this meant that a diagnosis of DOR was reached if baseline FSH levels exceeded the 95% confidence interval of age appropriate levels, independent of prior IVF retrievals and/or oocyte numbers. At, or above age 43, all patients were considered to suffer from DOR, independent of baseline FSH level.
If under age 40, DHEA was given for up to four months prior to IVF. Women of older age received DHEA, if possible, for at least two months.
For the purpose of this analysis, a patient had to be for at least one month (30 days) on DHEA supplementation in order for the IVF cycle to be considered amongst DHEA-treated cycles. All other DOR patients were considered to have received no DHEA treatment. Following this definition, 19 DOR patients had received no DHEA supplementation, and eight had.
All women with DOR, independent of DHEA supplementation, were stimulated with identical protocols, as previously reported in detail elsewhere. In short, they, without exception, received a microdose agonist protocol with maximal goandotropin stimulation of 600 IU to 750 IU daily, with preponderance of FSH, and a smaller daily amount of human menopausal gonadotropin (hMG).
PGD was performed in routine fashion, as also previously described in detail, and involved the analysis of chromosomes X, Y, 13, 16, 18, 21 and 22 by fluorescence in situ hybridization (FISH) on day three after fertilization. Embryo transfer occurred on day five after fertilization.
Patients were represented by only one cycle outcome in each group. If patients had undergone more than one cycle, either with, or without, DHEA supplementation, only their latest cycle was included in the analysis. Three patients underwent both a pre-DHEA and a post-DHEA cycle and in those cases both cycles were included in the analysis.
Statistical analysis was performed using SPSS for windows, standard version 10.0.7. Data are presented as mean±one standard deviation, unless otherwise noted, and statistical differences between the two study groups were tested by Chi-square and (two-sided) Fisher's Exact Test, where applicable, with significance being defined as p<0.05.

[3] = 3 women with DHEA and no-DHEA cycles, DHEA-treated cycle
[4] = DHEA-treated cycles n = 8, PGD by FISH
[5] = DHEA-treated cycles, at least one euploid embryo for transfer

C[C@]12CC[C@H](O)CC1=CC[C@@H]1[C@@H]2CC[C@]2(C)C(=O)CC[C@@H]12 [DHEA, Dehydroepiandrosterone]
clinical miscarriage rate, Toronto ([1]; 33 DHEA pregnancies, five miscarriages): 15.2%
clinical miscarriage rate, New York ([1]; 40 DHEA pregnancies, six miscarriages): 15.0%
Misc. Rate (%) ([1]; NY, age 35-37): 0.0%
Miscarriages ([1]; NY, age 35-37, 5 pregnancies): 0
Misc. Rate (%) ([1]; NY, age 38-40): 0.0%
Miscarriages ([1]; NY, age 38-40, 6 pregnancies): 0
Misc. Rate (%) ([1]; NY, age 41-42): 20.0%
Miscarriages ([1]; NY, age 41-42, 10 pregnancies): 2
Misc. Rate (%) ([1]; NY, age <35): 10.0%
Miscarriages ([1]; NY, age <35, 10 pregnancies): 1
Misc. Rate (%) ([1]; NY, age >42): 33.3%
Miscarriages ([1]; NY, age >42, 9 pregnancies): 3
Misc. Rate (%) ([1]; TO, age 35-37): 10.0%
Miscarriages ([1]; TO, age 35-37, 10 pregnancies): 1
Misc. Rate (%) ([1]; TO, age 38-40): 23.1%
Miscarriages ([1]; TO, age 38-40, 13 pregnancies): 3
Miscarriages ([1]; TO, age 41-42, 0 pregnancies): 0
Misc. Rate (%) ([1]; TO, age <35): 14.3%
Miscarriages ([1]; TO, age <35, 7 pregnancies): 1
Misc. Rate (%) ([1]; TO, age >42): 0.0%
Miscarriages ([1]; TO, age >42, 3 pregnancies): 0
Misc. Rate (%) ([1]; TOTAL both centers, age 35-37): 6.7%
Misc. Rate (%) ([1]; TOTAL both centers, age 38-40): 15.8%
Misc. Rate (%) ([1]; TOTAL both centers, age 41-42): 20.0%
Misc. Rate (%) ([1]; TOTAL both centers, age <35): 11.8%
Misc. Rate (%) ([1]; TOTAL both centers, age >42): 25.0%
reduction in miscarriage risk ([1]; first statistical model (age-stratified odds ratio)): approximately 50%
decline in miscarriages, depending on statistical method ([1]; versus national US IVF pregnancies): 50-80%
Aneuploid Embryos [2, 3]: 2.0 ± 1.8
Oocytes ± SD [2, 3]: 6.0 ± 4.8
Total Embryos ± SD [2, 3]: 4.0 ± 2.7
Embryos ± SD (total number) ([2]; DHEA-treated cycles n = 8): 9.1 ± 7.3
Oocytes ± SD ([2]; DHEA-treated cycles n = 8): 10.4±7.3
Peak Estradiol ± SD ([2]; DHEA-treated cycles n = 8, 25 mg TID at least one month): 2310.3 ± 1108.1 pg/mL
% Aneuploid ± SD [2, 4]: 55.9 ± 37.8%
% Euploid ± SD [2, 4]: 44.1 ± 37.8%
n Aneuploid ± SD [2, 4]: 4.4 ± 3.0
n Euploid ± SD [2, 4]: 2.1 ± 1.4
Patients with euploid embryos (%) [2, 5]: 100%
Patients with euploid embryos (n/N) [2, 5]: 8/8
